Measured values reported in ChEMBL document CHEMBL2073891, “Interaction of digoxin with antihypertensive drugs via MDR1” (Life Sci, 2002).

How the values were obtained:
Format in all cases: functional, cell-based
Conditions in all cases: pig, llc-pk1, 50 µM
[1] = target: T1, ATP-dependent translocase ABCB1 (Homo sapiens, UniProt P08183); assay: TP_TRANSPORTER: inhibition of Digoxin transepithelial transport (basal to apical)(Digoxin: 0.1 uM, Atenolol: 50 uM) in MDR1-expressing LLC-PK1 cells
[2] = target: T1, ATP-dependent translocase ABCB1; assay: TP_TRANSPORTER: inhibition of Digoxin transepithelial transport (basal to apical)(Digoxin: 0.1 uM, Candesartan cilexetil: 50 uM) in MDR1-expressing LLC-PK1 cells
[3] = target: T1, ATP-dependent translocase ABCB1; assay: TP_TRANSPORTER: inhibition of Digoxin transepithelial transport (basal to apical)(Digoxin: 0.1 uM, Candesartan: 50 uM) in MDR1-expressing LLC-PK1 cells
[4] = target: T1, ATP-dependent translocase ABCB1; assay: TP_TRANSPORTER: inhibition of Digoxin transepithelial transport (basal to apical)(Digoxin: 0.1 uM, Captopril: 50 uM) in MDR1-expressing LLC-PK1 cells
[5] = target: T1, ATP-dependent translocase ABCB1; assay: TP_TRANSPORTER: inhibition of Digoxin transepithelial transport (basal to apical)(Digoxin: 0.1 uM, Carvedilol: 50 uM) in MDR1-expressing LLC-PK1 cells
[6] = target: T1, ATP-dependent translocase ABCB1; assay: TP_TRANSPORTER: inhibition of Digoxin transepithelial transport (basal to apical)(Digoxin: 0.1 uM, Cilazaprilat: 50 uM) in MDR1-expressing LLC-PK1 cells
[7] = target: T1, ATP-dependent translocase ABCB1; assay: TP_TRANSPORTER: inhibition of Digoxin transepithelial transport (basal to apical)(Digoxin: 0.1 uM, Cilazapril: 50 uM) in MDR1-expressing LLC-PK1 cells
[8] = target: T1, ATP-dependent translocase ABCB1; assay: TP_TRANSPORTER: inhibition of Digoxin transepithelial transport (basal to apical)(Digoxin: 0.1 uM, Delapril: 50 uM) in MDR1-expressing LLC-PK1 cells
[9] = target: T1, ATP-dependent translocase ABCB1; assay: TP_TRANSPORTER: inhibition of Digoxin transepithelial transport (basal to apical)(Digoxin: 0.1 uM, Doxazosin: 50 uM) in MDR1-expressing LLC-PK1 cells
[10] = target: T1, ATP-dependent translocase ABCB1; assay: TP_TRANSPORTER: inhibition of Digoxin transepithelial transport (basal to apical)(Digoxin: 0.1 uM, Enalapril: 50 uM) in MDR1-expressing LLC-PK1 cells
[11] = target: T1, ATP-dependent translocase ABCB1; assay: TP_TRANSPORTER: inhibition of Digoxin transepithelial transport (basal to apical) (Digoxin: 0.1 uM, Lisinopril: 50 uM) in MDR1-expressing LLC-PK1 cells
[12] = target: T1, ATP-dependent translocase ABCB1; assay: TP_TRANSPORTER: inhibition of Digoxin transepithelial transport (basal to apical) (Digoxin: 0.1 uM, Losartan: 50 uM) in MDR1-expressing LLC-PK1 cells
[13] = target: T1, ATP-dependent translocase ABCB1; assay: TP_TRANSPORTER: inhibition of Digoxin transepithelial transport (basal to apical)(Digoxin: 0.1 uM, Metprolol: 50 uM) in MDR1-expressing LLC-PK1 cells
[14] = target: T1, ATP-dependent translocase ABCB1; assay: TP_TRANSPORTER: inhibition of Digoxin transepithelial transport (basal to apical) (Digoxin: 0.1 uM, Perindoprilat: 50 uM) in MDR1-expressing LLC-PK1 cells
[15] = target: T1, ATP-dependent translocase ABCB1; assay: TP_TRANSPORTER: inhibition of Digoxin transepithelial transport (basal to apical) (Digoxin: 0.1 uM, Perindopril: 50 uM) in MDR1-expressing LLC-PK1 cells
[16] = target: T1, ATP-dependent translocase ABCB1; assay: TP_TRANSPORTER: inhibition of Digoxin transepithelial transport (basal to apical)(Digoxin: 0.1 uM, Temocaprilat: 50 uM) in MDR1-expressing LLC-PK1 cells
[17] = target: T1, ATP-dependent translocase ABCB1; assay: TP_TRANSPORTER: inhibition of Digoxin transepithelial transport (basal to apical)(Digoxin: 0.1 uM, Temocapril: 50 uM) in MDR1-expressing LLC-PK1 cells

T1 sequence (P08183 whole entry): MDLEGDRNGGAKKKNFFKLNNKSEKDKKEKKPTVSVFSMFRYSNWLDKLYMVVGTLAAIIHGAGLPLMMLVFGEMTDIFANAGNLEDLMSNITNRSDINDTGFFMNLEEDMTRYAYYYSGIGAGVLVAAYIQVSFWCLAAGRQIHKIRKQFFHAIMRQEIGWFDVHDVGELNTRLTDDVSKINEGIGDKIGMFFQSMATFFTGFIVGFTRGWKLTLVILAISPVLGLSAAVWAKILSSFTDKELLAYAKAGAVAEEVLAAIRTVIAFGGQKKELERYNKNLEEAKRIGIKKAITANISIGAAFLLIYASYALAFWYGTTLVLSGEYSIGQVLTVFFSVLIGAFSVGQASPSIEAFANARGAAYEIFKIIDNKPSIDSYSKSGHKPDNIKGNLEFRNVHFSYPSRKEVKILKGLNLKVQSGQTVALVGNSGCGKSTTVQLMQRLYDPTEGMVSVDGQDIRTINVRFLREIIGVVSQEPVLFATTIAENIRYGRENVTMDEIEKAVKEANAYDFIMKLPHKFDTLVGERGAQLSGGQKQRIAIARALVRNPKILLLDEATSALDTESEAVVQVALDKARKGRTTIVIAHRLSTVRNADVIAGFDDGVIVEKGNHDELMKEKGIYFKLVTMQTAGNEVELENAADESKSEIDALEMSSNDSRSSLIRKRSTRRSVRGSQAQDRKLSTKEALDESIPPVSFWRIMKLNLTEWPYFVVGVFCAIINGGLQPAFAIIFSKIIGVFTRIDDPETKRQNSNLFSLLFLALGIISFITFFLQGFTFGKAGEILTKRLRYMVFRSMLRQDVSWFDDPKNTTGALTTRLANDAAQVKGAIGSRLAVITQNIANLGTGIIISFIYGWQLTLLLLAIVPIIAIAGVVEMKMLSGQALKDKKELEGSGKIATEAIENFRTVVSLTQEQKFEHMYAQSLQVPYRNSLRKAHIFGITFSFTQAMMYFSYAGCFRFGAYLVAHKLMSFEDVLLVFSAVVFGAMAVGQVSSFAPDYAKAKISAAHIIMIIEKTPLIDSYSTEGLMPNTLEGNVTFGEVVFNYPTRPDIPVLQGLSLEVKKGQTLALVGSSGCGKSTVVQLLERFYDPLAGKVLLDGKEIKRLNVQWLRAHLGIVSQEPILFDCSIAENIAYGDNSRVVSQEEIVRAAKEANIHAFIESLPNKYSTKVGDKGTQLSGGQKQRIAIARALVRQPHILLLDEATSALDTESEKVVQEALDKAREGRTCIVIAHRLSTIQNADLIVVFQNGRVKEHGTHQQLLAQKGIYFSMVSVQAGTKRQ

CC(C)NCC(O)COc1ccc(CC(N)=O)cc1 (configuration not stated) [ATENOLOL]
Activity [1]: is not an inhibitor [-]

CCOc1nc2cccc(C(=O)OC(C)OC(=O)OC3CCCCC3)c2n1Cc1ccc(-c2ccccc2-c2nnn[nH]2)cc1 (configuration not stated) [CANDESARTAN CILEXETIL]
Activity [2]: is not an inhibitor [-]

CCOc1nc2cccc(C(=O)O)c2n1Cc1ccc(-c2ccccc2-c2nnn[nH]2)cc1 [CANDESARTAN]
Activity [3]: is not an inhibitor [-]

C[C@H](CS)C(=O)N1CCC[C@H]1C(=O)O [CAPTOPRIL]
Activity [4]: is not an inhibitor [-]

COc1ccccc1OCCNCC(O)COc1cccc2[nH]c3ccccc3c12 (configuration not stated) [CARVEDILOL]
Activity [5]: inhibitor [+]

O=C(O)[C@H](CCc1ccccc1)N[C@H]1CCCN2CCC[C@@H](C(=O)O)N2C1=O [CILAZAPRILAT]
Activity [6]: is not an inhibitor [-]

CCOC(=O)[C@H](CCc1ccccc1)N[C@H]1CCCN2CCC[C@@H](C(=O)O)N2C1=O [CILAZAPRIL]
Activity [7]: is not an inhibitor [-]

CCOC(=O)[C@H](CCc1ccccc1)N[C@@H](C)C(=O)N(CC(=O)O)C1Cc2ccccc2C1 [DELAPRIL]
Activity [8]: is not an inhibitor [-]

COc1cc2nc(N3CCN(C(=O)C4COc5ccccc5O4)CC3)nc(N)c2cc1OC (configuration not stated) [DOXAZOSIN]
Activity [9]: inhibitor [+]

CCOC(=O)[C@H](CCc1ccccc1)N[C@@H](C)C(=O)N1CCC[C@H]1C(=O)O [ENALAPRIL]
Activity [10]: is not an inhibitor [-]

NCCCC[C@H](N[C@@H](CCc1ccccc1)C(=O)O)C(=O)N1CCC[C@H]1C(=O)O [LISINOPRIL ANHYDROUS]
Activity [11]: is not an inhibitor [-]

CCCCc1nc(Cl)c(CO)n1Cc1ccc(-c2ccccc2-c2nn[nH]n2)cc1 [LOSARTAN]
Activity [12]: is not an inhibitor [-]

COCCc1ccc(OCC(O)CNC(C)C)cc1 (configuration not stated) [METOPROLOL]
Activity [13]: is not an inhibitor [-]

CCC[C@H](N[C@@H](C)C(=O)N1[C@H](C(=O)O)C[C@@H]2CCCC[C@@H]21)C(=O)O [PERINDOPRILAT]
Activity [14]: is not an inhibitor [-]

CCC[C@H](N[C@@H](C)C(=O)N1[C@H](C(=O)O)C[C@@H]2CCCC[C@@H]21)C(=O)OCC [PERINDOPRIL]
Activity [15]: is not an inhibitor [-]

O=C(O)CN1C[C@@H](c2cccs2)SC[C@H](N[C@@H](CCc2ccccc2)C(=O)O)C1=O [TEMOCAPRILAT]
Activity [16]: is not an inhibitor [-]

CCOC(=O)[C@H](CCc1ccccc1)N[C@H]1CS[C@H](c2cccs2)CN(CC(=O)O)C1=O [TEMOCAPRIL]
Activity [17]: is not an inhibitor [-]
